Experimental findings from patent publication US20060051835A1, “Pael receptor, cells and animal expressing pael receptor and method of screning remedy for parkinson's disease” (priority 2001, published 2006) are described below.

Series [1] relates to Pael receptor. As to the kind of experiment: Immunocytochemistry, intracellular distribution of over-expressed Pael receptors in SH-SY5Y cells. Particulars: SH-SY5Y cells transfected with Pael receptor plasmids, treated for 6 hours. Type of series: cell-based, human. As for the experimental part:
For immunocytochemistry, a human Pael receptor expression vector (1 μg per sample) was gene-transferred, or was gene-transferred in combination with 0.3 μg of red fluorescent protein expression vector (pDsRed1-N1, Clontech) having endoplasmic reticulum localization sequence of calreticulin or Golgi body localization sequence of human β1, 4-galactosyltransferase into SH-SY5Y cells inoculated on a 8-well chamber slide. After 20 hours of culturing, the cells were exposed to 20 μM lactacystin for 16 hours. After washed in phosphate buffered saline, the cells were fixed with 0.2% glutaraldehyde and 2% formaldehyde. Subsequently, the cells were stained with anti-human Pael receptor antibodies or anti-BiP antibodies. For immunohistochemistry, the carboxyl terminal site (541 to 600 amino residues) of mouse Pael receptor was expressed as a GST fusion protein in Escherichia coli. The anti-Pael receptor polyclonal antibody was prepared against a recombinant protein from which the GST portion had been removed. 14 μm-thick frozen sections of the mouse C57BL/6 brain tissue were allowed to react with anti-Pael receptor antibodies (1:200 dilution), anti-TH antibodies (Chemicon, 1:100), anti-NeuN antibodies (Chemicon, 1:200) or anti-CNPase antibodies (Sigma, 1:100). The primary antibody was stained with Alexa 488 or Alexa 546 (Molecular Probes)-labeled secondary antibody. The stained cells or sections were mounted using SlowFade (Molecular probes), and then observed under a confocal laser fluorescence microscope (Fluoview, Olympus).
Furthermore, to confirm the involvement of cell death induced by misfolded proteins in cell death resulting from overexpression of Pael receptors, intracellular distribution of Pael receptors in the presence or the absence of lactacystin was examined. […] Expression plasmids for Pael receptors were gene-transferred to SH-SY5Y cells, and then the cells were cultured in the presence (middle and lower panels) or the absence (upper panel) of lactacystin for 6 hours. […]

The test system of a further series is SH-SY5Y cells. As to the kind of experiment: Cell death assay in SH-SY5Y cells with or without Pael receptor overexpression. Format: cell-based. An excerpt:
Descriptions concerning expression plasmids for Parkin, Parkin variants, UBCH6, UBCH7 and Ubiquitin are as described in Imai, Y. et al. (2000) J Biol Chem 275, 35661-35664. The full-length complementary strand DNAs (cDNAs) of human and mouse Pael receptors, human ETBR-LP-2, human UBC6, UBC7 and E2-25K were obtained by reverse transcription (RT)-PCR. The full-length cDNA of ETA-R and that of ETB-R were obtained from the RIKEN Gene Bank. Recombinant GST-Parkin, GST-A Ex 4, 6×His tagged UBC6 and UBC7 were produced in the Escherichia coli BL21 strain (DE3) pLysS (Novagen). Site-directed mutagenesis to the active center cysteine of UBC6 and UBC7 was performed by the PCR method. UBC6 of a putative membrane insertion site-deficient type (UBC6ΔC; 1 to 288 amino residues) is expressed better than wild type UBC6 in Escherichia coli and has high enzyme activity, so that UBC6ΔC was subjected to in vitro ubiquitination assay. Anti-Myc (9E10), anti-HA (Y-11), anti-Ubiquitin (FL-76), anti-BiP (N-20) and anti-actin (C-2) antibodies were purchased from Santa Cruz Biotech. Anti-FLAG (M2), anti-HA (3F10), anti-Ubiquitin (1B3), anti-GluR4 (AB1508) and anti-NSE (BBS/NC/VI-H14) were purchased from Sigma, Roche Diagnostics, MBL (Nagoya, Japan), Chemicon and Dako, respectively. Anti-UCH-L1 antibodies were provided by Dr. Keiji WADA (National Center of Neurology and Psychiatry, Japan). 293T cells derived from a human fetal kidney and SH-SY5Y cells derived from neuroblastoma were subjected to gene transfer, immunoprecipitation, Western blot, immunocytochemistry and cell death assay according to the method as described in Imai et al., 2000.
To confirm this prediction, the effect of a proteasome inhibitor and that of a UPR inducer on cell death resulting from the overexpression of Pael receptors were examined (FIG. 11). Vectors (−) having no gene inserted therein or expression plasmids for Pael receptors (+) were gene-transferred with expression plasmids for enhanced green fluorescent proteins (EGFP) to SH-SY5Y cells. The cells were then cultured in the presence (Lc, 20 μM) or the absence (non) of lactacysin, and the presence of tunicamycin (Tm, 5 μg/ml) or 2-ME (2 mM) for 16 hours. Cell death was counted by the method described in Imai, Y. et al. (2000) J Biol Chem 275, 35661-35664. In FIG. 11, the line of error indicates the standard deviation (S.D.) calculated from three experiments.

Series [2] has as its system Pael receptor. The series is described as follows: Western blotting of 1% Triton X-100-soluble and -insoluble fractions of Pael receptor-transfected SH-SY5Y cells. Type of series: cell-based, human. The following applies: 16 hours, lactacystin 10 μM, tunicamycin 1 μg/ml, 2-ME 1 mM; for Pael receptors in the insoluble fraction: 1% Triton X-100-insoluble fraction; for expression of BiP (GRP78) and of endogenous Parkin in the soluble fraction: cells over-expressing Pael receptors. How it is done: Cells were suspended in a cytolysis buffer (consisting of 20 mM HEPES, pH 7.4, 120 mM NaCl, 5 mM EDTA, 10% glycerol, 1% Triton X-100 and Complete Protease Inhibitors [Roche Diagnostics]) and then lysed at 4° C. for 30 minutes. The forebrain cortex of the human cerebrum was suspended in a cytolysis buffer, and then crushed using a downs homogenizer. The sample was fractionated into surfactant-soluble and insoluble fractions, and then immuno-precipitated according to a modified method of Ward et al. (1995) Cell 83, 121-127. Specifically, the suspension was fractionated by centrifugation at 15,000×g for 30 minutes. The supernatant derived from 1% Triton X-100 soluble fraction was directly subjected to immunoprecipitation. The insoluble pellet fraction was washed 4 times in an ice-cooled cytolysis buffer. Subsequently, the fraction was subjected to lysis at 60° C. for 1 hour in a cytolysis buffer supplemented with sodium lauryl sulfate (SDS) with a final concentration of 1%. A cytolysis buffer containing 10 mM MgCl2 and 25 μg/ml DNase I and having a volume 10 times greater than that of the solution was added. The solution was allowed to react at 37° C. for 10 minutes. After centrifugation at 15,000×g for 30 minutes, the supernatant derived from 1% Triton X-100 insoluble fraction was subjected to immunoprecipitation using various antibodies and protein G-coupled or protein A/G (50/50%)-coupled Sepharose beads (Amersham-Pharmacia). The immunoprecipitate was washed 4 times in a cytolysis buffer containing no complete protease inhibitors. 1% Triton X-100-soluble and -insoluble fractions of total cell extract, or immunoprecipitates derived from the 1% Triton X-100-soluble fraction and -insoluble fraction were subjected to Western blot analysis using ECL detection reagent (Amersham-Pharmacia). Proteins were quantified using Coomassie protein assay reagent (Pierce).
Vectors (−) having no gene inserted therein or expression plasmids (+) for Pael receptors were gene-transferred to SH-SY5Y cells, and then the cells were cultured for 20 hours. Next, in the presence or the absence of lactacystin (10 μM) and in the presence of tunicamycin (1 μg/ml) or 2-mercaptoethanol (2-ME; 1 mM), the cells were cultured for 16 hours. The cells were lysed in a buffer containing 1% Triton X-100, and then fractionated by the method described in Ward et al., 1995 Cell 83, 121-127. Insoluble Pael receptors were immunoprecipitated as described above from the insoluble fraction of the same sample, and then analyzed using anti-Ub polyclonal antibodies (FIG. 10). 1% Triton-X100-insoluble or -soluble fraction was obtained under various conditions, including cases wherein Pael receptor cDNA had not been transfected (−) or transfected (+) to SH-SY5Y cells, and then subjected to Western blotting. Even in an untreated state, Pael receptors were already present in the insoluble fraction at a level equivalent to that of the soluble fraction.
In general terms: Immunoblotting shows a protein as a band on a membrane.

In series [3] the test system is Pael receptor. As to the kind of experiment: Pulse-chase experiment, turnover of 35S-labeled Pael receptor. Format: cell-based, human. The following applies: 10 μM lactacystin, relative to level at time 0. As for the experimental part: Pael receptors having FLAG-tagged carboxyl termini (Pael receptor-FLAG) and expression plasmids for Parkin or control plasmids were gene-transferred to SH-SY5Y cells. 36 hours later, the cells were cultured for 1 hour in Dulbecco's modified eagle's medium (M/C-free DMEM) containing 5% fetal calf serum (FCS) but containing no methionine/cysteine under conditions involving the presence or the absence of 10 μM lactacystin. The cells were then labeled at 37° C. for 30 minutes by adding 200 μCi/ml ^35S-methionine/cysteine to the 5% FCS-containing M/C-free DMEM in the presence or the absence of 10 μM lactacystin. […] The metabolically labeled Pael receptor was quantified using Image Gauge software (Fujifilm). Next, to examine whether Parkin degrades the Pael receptor in the ubiquitin-proteasome system, the turnover rate of the Pael receptor was measured under conditions involving the presence or the absence of Parkin by the pulse-chase experiment (FIG. 9). […] Subsequently, ^35S-methionine/cysteine were added for labeling, and then the cells were chased for the time indicated in FIG. 9 in the presence (Lc +) or the absence (Lc −) of 10 μM lactacystin. ^35S-labeld Pael receptors were immunoprecipitated, detected by radioautography (FIG. 9 left), and then quantified by phosphor imaging (FIG. 9 right). […]

[4] abbreviates: Pael receptor-over-expressing SH-SY5Y cells, 16 hours, lactacystin 20 μM, tunicamycin 5 μg/ml, 2-ME 2 mM.
The mark [5] stands for this setting: control SH-SY5Y cells, 16 hours, tunicamycin 5 μg/ml, 2-ME 2 mM.

Turning to `OCCS` [2-ME, 2-mercaptoethanol], in the series with Pael receptor [1], the “intracellular distribution of Pael receptors” value (“intracellular distribution” below) is “the same”. Also, the cells died entry with SH-SY5Y cells (setting [4]) was “approximately 60%”. The compound further registered a cells died in the series with SH-SY5Y cells (setting [5]) of 40%. In the series on Pael receptor [2], the “Pael receptors in the insoluble fraction” value is “increased with a high-molecular-weight shift”; the “expression of BiP (GRP78) and of endogenous Parkin in the soluble fraction” value (from here on “expression of BiP … in the soluble fraction”) is recorded as “caused increases”.

For the compound `CC(=O)N[C@@H](CSC(=O)[C@]1([C@@H](O)C(C)C)NC(=O)[C@H](C)[C@@H]1O)C(=O)O` [lactacystin], the “Pael receptors remained after 180 minutes of chasing” value came to 58% in the series with Pael receptor [3] (SH-SY5Y cells over-expressing Parkin) and 54% in the series with Pael receptor [3] (control SH-SY5Y cells). Moreover, the “intracellular distribution” value in the series on Pael receptor [1] is “accumulated in the endoplasmic reticulum”. Besides, the cells died entry in the series with SH-SY5Y cells (human, 16 h, 20 μM) is on record as “approximately 50%”. For the same compound, the “Pael receptors in the insoluble fraction” value in the series on Pael receptor [2] was “increased with a high-molecular-weight shift”. In addition, the “expression of BiP … in the soluble fraction” value with Pael receptor [2] is “caused increases”.

For tunicamycin, the “intracellular distribution” value with Pael receptor [1] was “the same”. Further, in the series on SH-SY5Y cells (setting [4]), the cells died result is on record as “approximately 60%”. The compound also displayed a cells died with SH-SY5Y cells (setting [5]) of 40%. Further, in the series with Pael receptor [2], the “Pael receptors in the insoluble fraction” value is “increased with a high-molecular-weight shift”; the “expression of BiP … in the soluble fraction” value was “caused increases”.
